# Assay: Antioxidant activity assessed as trolox equivalents of ABTS radical scavenging activity
# Type: functional
structure (smiles),measurement,value
COc1ccc(Nc2nc(N)c(C(=O)c3ccccc3)s2)cc1,Activity,0.17 µM

# — ChEMBL document CHEMBL3045348, “Thiazoles: having diverse biological activities” (Med Chem Res, 2012)
